Test results taken from patent US11911404B2, “Fucosylation and immune surveillance in melanoma” (H. LEE MOFFITT CANCER CENTER AND RESEARCH INSTITUTE, INC., priority 2017, dated 2024).
“Also recorded” adds a separate entry of the source.

What was measured:
[1] = system: mouse melanoma model; experiment: Mouse melanoma model, dietary fucose supplementation: tumor growth and metastasis; assay type: in vivo
Procedure: (§1) To determine whether dietary or genetic modulation of fucosylation affects tumor growth and metastasis, we previously studied a mouse melanoma model in which tumor fucosylation was increased either by dietary supplementation (FIG. 2A) with 100 mM fucose or by overexpressing mouse FUK (FIG. 2B). […] To determine whether fucosylation affects tumor infiltration by immune cells, Immunofluorescent staining analysis of CD45 (general leukocyte marker, red) and DAPI (blue) was performed (FIG. 2C). To determine whether fucosylation affects tumor infiltration by NK cells, immunofluorescent staining analysis for DX5 (an NK cell marker, red) and DAPI (blue) was performed (FIG. 2D). Both NK cells and CD4+ T cells were elevated in samples from fucose supplemented mice.

[2] = system: melanoma tumors; experiment: Immunofluorescent staining of tumors for immune cell infiltration (CD45, DX5); assay type: in vivo, mouse; settings: for infiltration of tumors by CD45+ immune cells (leukocytes) and NK cells: dietary fucose supplementation
Procedure: as §1

[3] = system: SW1 mouse melanoma cells; experiment: SW1 mouse melanoma tumor growth in C3H mice fed control or L-fucose water, with or without CD4+/CD8+ T cell depletion; assay type: in vivo
Procedure: (§2) To determine which immune cell populations were affected by L-fucose, another mouse melanoma model treated with control or L-fucose-supplemented water was used. First, 1.25×10^6 SW1 mouse melanoma cells were injected into the back right flanks of the mice and allowed the tumors to grow to 150 mm^3. At 150 mm^3 (14 days), 100 mM L-fucose was administered via the drinking water to half of the mice. Tumor growth was monitored (FIGS. 3A and 3B). Total and specific subpopulations of tumor-infiltrating lymphocytes were assessed by cell flow cytometric analysis (FIGS. 3C and 3D). Assessed populations included F4/80 (macrophage)-, Gr-1 (MDSCs)-, Cd11c (Dendritic cells)-, and DX5 (NK cells)-positive cells. For T-cells, we probed for CD3 (general T-cell marker) and further for CD4 and CD8 (for those T cell subpopulations). Of the CD4-positive cells, CD25 positive cells was used to elucidate the T regulatory cells. […] Both CD4 and CD8 positive T cells (CD3+ cells) increased in response to fucose. However, myeloid derived suppressor cells (MDSCs) decreased in response to dietary fucose supplementation.
This SW1 melanoma tumor/C3H mouse isogenic model was recapitulated to profile—in detail—tumor-infiltrating immune populations. >65% reduced tumor growth was observed during dietary L-fucose supplementation (FIG. 4A). […]

[4] = system: SW1 mouse melanoma tumors; experiment: Flow cytometric analysis of tumor-infiltrating lymphocytes in SW1 tumors; assay type: in vivo; settings: for tumor-infiltrating CD4+ and CD8+ T cells: dietary fucose vs control diet
Procedure: as §2
This SW1 melanoma tumor/C3H mouse isogenic model was recapitulated to profile—in detail—tumor-infiltrating immune populations. >65% reduced tumor growth was observed during dietary L-fucose supplementation (FIG. 4A). […] Although most tumor-suppressive immune cell types were increased in the fucosylation-high, smaller tumors, tumor-infiltrating CD4+ and CD8+ T cells were most increased-doubled-in these tumors compared to control diet tumors (FIG. 4B, left and right). […] The presence and cytolytic activity of CD4+ T cells in tumors has been correlated with better patient survival rates and increased responsiveness to immunotherapies, respectively.

[5] = system: 1205Lu melanoma cells; experiment: LDH-release cytotoxicity assay, NK cell co-culture with pre-treated melanoma cells; assay type: cell-based, human; settings: 1205Lu cells pre-treated with 250 μM, 8 h co-culture
Procedure: After 8 h, LDH levels released in the media were measured. *=p 0.02; •=p<0.001. FIGS. 5C and 5D show Immunoblot analysis using AAL lectin (another fucose-binding lectin) was performed to confirm the effects of FUTi (C) or L-fucose (D) on 1205Lu cells (96 h treatment). (•: p-value≥0.02)(*: p-value≥0.002).
The possibility that tumor fucosylation can directly activate the tumor cell-killing activity of NK cells was explored. To assay for this possibility, a lactate dehydrogenase (LDH)-release-based assay was used in which the fucosylation of LU1205 melanoma cells was modulated prior to co-culture with NK cells. Specifically, primary NK cells isolates (5A) or immortalized NK92 cell line (5B) were co-cultured with 1205Lu melanoma cells that were pre-treated with DMSO, 250 μM pan-fucosyltransferase inhibitor (FUTi), or 250 μM L-fucose for 8 hours. Non-radioactive LDH-release cytotoxicity assay was performed to measure extent of NK cell-mediated killing. […] (•: p-value≥0.02) (*: p-value≥0.002).

[6] = system: HLA-DRB1; experiment: Flow cytometry of cell surface presentation, normalized to PKH26; assay type: cell-based, human; settings: WM793 cells, L-fucose treatment (FIG. 16B)
Procedure: […] Stained cells were subjected to flow cytometric analyses and quantitation of protein signal/PKH26 signal to quantitate protein per relatice surface area.
FIGS. 16A and 16B show HLA-DRB1 is fucosylated on N48, and fucosylation promotes its cell surface presentation. […] AAL or HLA-DRB1 signals were normalized to PKH26 (total membrane stain).
To determine molecular mechanisms underlying the effects of fucosylation, a click-chemistry-based proteomic screen was performed to identify all fucosylated proteins in melanoma cells. 2 fucosylated immunomodulatory proteins, HLA-A and HLA-DRB1, were identified in melanoma cells. Fucose-binding lectin pulldown and immunoblot analysis confirmed the i) the expression and ii) the fucosylation of these 2 HLA proteins in melanoma cells, and further, indicate that their fucosylation is reduced when comparing patient-matched primary vs. metastatic cell lines (FIGS. 6A & 6C). The proximity ligation analysis technique, a cutting edge technique conventionally implemented to visualize 2 directly interacting proteins or post-translationally modified species of specific proteins when antibodies for the modifications are available (e.g., phosphorylated Tyr using an anti-phospho-Tyr antibody). […]

[7] = system: SW1 mouse melanoma; experiment: Growth of control, H2K1- or IEβ-knocked down SW1 tumors in mice fed ±100 mM L-fucose water; assay type: in vivo
Excerpt: N=7 mice/condition. •:p<0.01. […] (*initiate L-fucose).
(§3) Fucosylation of HLA-DRB1 occurs on amino acid N48 (mutation to G abolishes interaction with fucose-binding AAL lectin) (FIG. 16A). Increasing fucosylation (L-fucose treatment) promotes cell surface abundance of HLA-DRB1 (which is expected to increase CD4^+ T cell activation) (FIG. 16B). […] A lectin-mediated proximity ligation technique was developed to visualize fucosylated HLA-DRB1 in cells and tissues (FIG. 18).

[8] = system: SW1 mouse melanoma; experiment: SW1 tumor growth in mice fed ±L-fucose and treated with anti-CTLA4 or anti-PD1; assay type: in vivo; settings: SW1/C3H/HeJ model, oral 100 mM L-fucose from day 14; antibodies 20 mg/kg twice weekly
Procedure: SW1 tumor growth curves in mice fed±100 mM L-fucose treated with either control (PBS) or […] (17A) or α-PD1 (17B). Combinations are color-coded as indicated. N=8 mice per condition. L-fucose was administered in the water starting on day 14 (refreshed twice weekly); α-CTLA4 or α-PD1 was administered (20 mg/kg each) twice weekly starting day 14. Compared with PBS control: #: p<0.001; *: p<0.05:
as §3

[9] = system: SW1 mouse melanoma tumors; experiment: Flow cytometric analysis of tumor-infiltrating lymphocytes in SW1 tumors; assay type: in vivo; settings: L-fucose treatment, CD4+ T cell-depleted mice (FIG. 4D)
[10] = system: RPS3; experiment: RPS3 fucosylation by lectin pull-down after cellular stressors; assay type: cell-based, human; settings: melanoma cells treated 24-48 h, lectin PD (FIG. 12)
Excerpt: Specifically, (11A) RPS3 level in increased in melanoma cells relative to primary melanocytes (HEMN, human epidermal melanocytes). (11B) RPS3 is increased in melanoma through progression in human samples by TMA. TMA stained and analyzed by AQUA at Moffitt Cancer Center Department of Clinical Testing Development Core Facility. (11C) Nuclear RPS3 level increases with stage in matched primary and metastatic (MET) samples relative to HEMN cells (cell fractions analyzed by western blot [left]; cells analyzed by immunofluorescence [right]). (11D) Expression of RPS3-mDDK in vertical growth phase cells confers behavior associated with metastatic disease. Increased anchorage-independent growth [left], increased motility [right]. It was noted that Fucosylated RPS3 level increases in response to cellular stressors. Melanoma cells treated for 24-48 h with serum deprivation (SD), thapsigargin (T, thap) or mutant BRAF-inhibitor (Plexxikon, PLX) and assayed for RPS3 fucosylation by lectin PD (FIG. 12).

## C[C@H](O)[C@@H](O)[C@@H](O)[C@H](O)C=O [L-fucose]
[1]; L-fucose supplementation, earlier model
  reduction in tumor growth: > 50%
[1]; dietary L-fucose supplementation, mouse models
  block of tumor growth and metastasis: > 50%
[1]; dietary supplementation with 100 mM fucose (FIG. 2A)
  tumor suppression: increased tumor suppression
[2]
  infiltration of tumors by CD45+ immune cells (leukocytes) and NK cells: significant increases
[2]; listed as fucose
  infiltration of tumors by CD45+ immune cells (leukocytes) and NK cells: increased
[2]; fucose supplemented mice, immunofluorescence (FIGS. 2C, 2D)
  NK cells and CD4+ T cells in tumor samples: elevated
[3]; CD4+ T cell-immunodepleted mice (FIG. 4C left)
  L-fucose-triggered tumor suppression after loss of CD4+ T cells: abrogated tumor suppression
[3]; SW1/C3H model, dietary 100 mM L-fucose in water, 45 days (FIG. 4A)
  reduced tumor growth: > 65%
[4]; administration of fucose
  increase of NK cells, T cells (CD4+ and CD8+), dendritic cells and macrophage: 10-50 fold
[4]; dietary fucose supplementation, 100 mM in drinking water
  overall immune infiltration of tumors: increases
[4]; dietary fucose supplementation, listed as fucose
  myeloid derived suppressor cells (MDSCs) in tumors: decrease
[4]
  tumor-infiltrating CD4+ and CD8+ T cells: doubled
[4]; listed as fucose
  tumor-infiltrating CD4+ and CD8+ T cells: increase
[4]; tumors from L-fucose-supplemented mice
  infiltrating immune cells per gram of tumor vs control diet: 10-50 fold
[5]
  NK cell-mediated tumor-cell killing (LDH release), immortalized human NK cells: sufficient to induce the tumor-cell killing activity
  NK cell-mediated tumor-cell killing (LDH release), primary human NK cells: sufficient to induce the tumor-cell killing activity
[6]
  cell surface abundance of HLA-DRB1: promotes
[7]; shH2K1, ±100 mM L-fucose water
  difference in ±L-fuc tumor growth curves in H2K1 knocked-down tumors: not significant
[7]; shIEβ vs control shRNA (SCR), ±100 mM L-fucose water
  L-fucose-triggered tumor suppression in IEβ (HLA-DRB1 ortholog) knocked-down tumors: abrogates; also recorded: not significant
[8]
  suppression of melanoma growth compared with checkpoint antibodies: more significantly than anti-CTLA4 or anti-PD1 alone; also recorded: more tumor suppressive than α-CTLA4 or α-PD1 alone
[9]
  numbers of intratumoral CD8+ T cells, CD11c+ dendritic cells and NK cells: reduced numbers

## C/C=C(/C)C(=O)O[C@H]1C(C)=C2[C@H]([C@@H]1OC(=O)CCCCCCC)[C@@](C)(OC(C)=O)C[C@H](OC(=O)CCC)[C@@]1(O)[C@H]2OC(=O)[C@@]1(C)O [thapsigargin]
[10]
  fucosylated RPS3 level: increases
